Assay results taken from patent US10633367B2, “Fluorine- and/or deuterium-containing compounds for treating non-small cell lung cancer and related diseases” (X-Cutag Therapeutics, Inc., priority 2017, dated 2020).

Experiments:
[1] = tested on: NCI-H1975 NSCLC cells carrying activating EGFR T790M mutation; test: Cell viability of NCI-H1975 cells (CCK-8 assay); type: cell-based, human; settings: 36 hour treatment, CCK-8, FIG. 13
Description: NCI-H1975 is a model human NSCLC cell line that expresses activating EGER-T790M mutant, resulting in uncontrolled cell proliferation. Efficient inhibition of EGFR tyrosine kinase activity by TKI can affect cell growth, causing cell death. Here the inventors studied the effect of F1-osimertinib on cell viability of NCI-H1975 cells by […] (Cell Counting Kit-8 (CCK-8), Bimake.com, Houston, Tex.). 4,000 exponentially growing cells in 100 ul culture media were seeded in triplicate into 96-well plates and cultured to 70-80% continency. Cells were treated with indicated concentration of F1-osimertinib for 36 hour. 10 ul/well CCK-8 were added and continuously incubated till the absorbance (OD) at 450 nm reaches 0.8 measured by a microplate reader. Medium only wells were served as blank control. The cell viability was calculated as follows: Cell viability (%)=[A(F1-osimertinib)−A(blank)]/[A(solvent)−A(blank)]×100%. A: OD value measured.

[2] = Co-incubation in rat plasma (ex-vivo stability, LC-MS/MS); type: in vitro ADME, Sprague-Dawley rat; settings: after incubating for two hours, co-incubated, FIG. 10
Description: (§1) Briefly, 40 μL of osimertinib was co-incubated with an equal volume of one of the compounds described in this invention at the same concentration in blank plasma (human, beagle dog, Sprague-Dawley rat or CD-1 mouse). The tubes were incubated in a dry bath incubator for six time points ranging from 0 to 120 minutes. At each time point, the plasma was crashed with 200 μL internal standard working solution in acetonitrile, then vortexes and centrifuged. A portion of the supernatant was then transferred to autosampler vials for injection into the LC-MS/MS system. Chromatographic retention of osimertinib and the compounds described in the invention was obtained on an ACE 3 C18, 2.1×50 min, 3.0 μm column (Aberdeen, Scotland) under gradient conditions with a flow rate of 0.3 mL/minute. Analytes were detected by multiple reaction monitoring using an MDS Sciex API 4000 mass spectrometer (Applied Biosystems/MDS Sciex, Concord, Ontario, Canada) in positive mode. Data was captured using Analyst®, Version 1.6.2 (Applied Biosystems/MDS Sciex, Foster City, Calif.) and then exported to Excel® (Microsoft, Seattle, Wash.) for further data reduction.

[3] = Co-incubation in dog plasma (ex-vivo stability, LC-MS/MS); type: in vitro ADME; settings: beagle plasma, after incubating for two hours, co-incubated, FIG. 11
Description: as §1

[4] = Co-incubation in human plasma (ex-vivo stability, LC-MS/MS); type: in vitro ADME; settings: co-dosed with osimertinib at 1:1 ratio, 0 to 120 minutes, FIG. 9
Description: as §1

[5] = Co-incubation in mouse plasma (ex-vivo stability, LC-MS/MS); type: in vitro ADME, CD-1 mouse; settings: after incubating for two hours, co-incubated, FIG. 12
Description: as §1

Row | Structure (SMILES) | inhibition of NSCLC cell growth (cell viability) [1] | remaining percentage of the initial concentration [2] | remaining percentage of the initial concentration [3] | stability when incubated in human plasma [4] | remaining percentage [5] [%]
1 | C=C(F)C(=O)Nc1cc(Nc2nccc(-c3cn(C)c4ccccc34)n2)c(OC)cc1N(C)CCN(C)C [F1-osimertinib] | significant inhibition of NSCLC cell growth | – | – | – | –
2 | [2H]C([2H])([2H])n1cc(-c2ccnc(Nc3cc(NC(=O)C(=C)F)c(N(C)CCN(C)C)cc3OC)n2)c2ccccc21 [F1-D3-osimertinib] | significant inhibition of NSCLC cell growth | – | – | – | –
3 | C=CC(=O)Nc1cc(Nc2nccc(-c3cn(C)c4ccccc34)n2)c(OC)cc1N(C)CCN(C)C [osimertinib, N-(2-{2-dimethylaminoethyl-methylamino}-4-methoxy-5-{[4-(1-methylindol-3-yl)pyrimidin-2-yl]amino}phenyl)prop-2-enamide] | – | around 35% | approximately 78% | decreased rapidly | 92
